Patent US20080227870A1, “Carcinogen Solvents in Reducing the Carcinogen Concentration of Cells” (priority 2004, published 2008)

Test system: human fibroplasts
Assay: Membrane integrity test with a vital dye after exposure to perfluorocarbon liquid
Format: cell-based
Conditions: biological compatibility statement for the used examples

## FC1(F)C(F)(F)C(F)(F)C2(F)C(F)(F)C(F)(F)C(F)(F)C(F)(F)C2(F)C1(F)F (centres unmarked) [perfluorodecalin]
  toxicity to the cell: non-toxic

## FC(F)(F)C(F)(F)C(F)(F)C(F)(F)C(F)(F)C(F)(F)C(F)(F)C(F)(F)Br [perfluorooctylbromide]
  toxicity to the cell: non-toxic
